Measured values taken from patent publication US20070231403A1, “Natural composite preservatives” (priority 2006, published 2007).

Assay: DPPH radical scavenging (antioxidant) assay
Type: biochemical
Settings: vitamin C 1 mM
Procedure: The antioxidant activity of the natural composite preservatives was analyzed with DPPH (1,1-diphenyl-2-picrylhydrazyl). DPPH is a color radical generally used in determining radical scavenging capacity. Test samples were dissolved in 4 ml of distilled water or a solvent and mixed with 1 ml of 100 μM DPPH before incubation at room temperature for 30 min. Absorbance at 517 nm was read to calculate the amount of remaining DPPH (blank: distilled water or solvent only, control: DPPH alone in distilled water or solvent). Radical Scavenging Activity (RSA) was expressed as percentages of the test groups relative to the control, as calculated by the following equation 1.

O=C1O[C@H]([C@@H](O)CO)C(O)=C1O [vitamin C]
RSA: 35%
